In series [1] the test system is Differentiated U937 cells. Nature of the series: Cell viability: MTT assay. In kind it is cell-based, human. Conditions: 1 μg/mL. The procedure:
Differentiated U937 cells were pre-incubated with each test compound (final concentration 1 μg/mL or 10 μg/mL in 200 μL media indicated below) under two protocols: the first for 4 hr in 5% FCS RPMI1640 media and the second in 10% FCS RPMI1640 media for 24 h. The supernatant was replaced with new media (200 μL) and MTT stock solution (10 μL, 5 mg/mL) was added to each well. After incubation for 1 hr the media were removed, DMSO (200 μL) was added to each well and the plates were shaken lightly for 1 hr prior to reading the absorbance at 550 nm. The percentage loss of cell viability was calculated for each well relative to vehicle (0.5% DMSO) treatment. Consequently an apparent increase in cell viability for drug treatment relative to vehicle is tabulated as a negative percentage.

Series [2] has as its system Cigarette Smoke Model. Nature of the series: Cigarette smoke model. The class given is in vivo, A/J mice. Conditions: 1.75 μg/mouse (35 μL, bid, i.n.). The procedure:
A/J mice (males, 5 weeks old) were exposed to cigarette smoke (4% cigarette smoke, diluted with air) for 30 min/day for 11 days using a Tobacco Smoke Inhalation Experiment System for small animals (Model SIS-CS; Sibata Scientific Technology, Tokyo, Japan). […] At 12 hr after the last dosing, each of the animals was anesthetized, the trachea cannulated and bronchoalveolar lavage fluid (BALF) was collected. The numbers of alveolar macrophages and neutrophils were determined by FACS analysis (EPICS® ALTRA II, Beckman Coulter, Inc., Fullerton, Calif., USA) using anti-mouse MOMA2 antibody (macrophage) or anti-mouse 7/4 antibody (neutrophil). BALF was centrifuged and the supernatant was collected. The level of keratinocyte chemoattractant (KC; CXCL1) in BALF was quantitated using a Quentikine® mouse KC ELISA kit (R&D systems, Inc., Minneapolis, Minn., USA).

Series [3] concerns LPS-induced neutrophil accumulation. Nature of the series: LPS-induced neutrophil accumulation in mice. In kind it is in vivo, Balb/c mice. Conditions: 1.75 μg/mouse. The procedure:
[…] At T=0, mice were placed into an exposure chamber and exposed to LPS (7.0 mL, 0.5 mg/mL solution in PBS) for 30 min). After a further 8 hr the animals were anesthetized, their tracheas cannulated and BALF extracted by infusing and then withdrawing from their lungs 1.0 mL of PBS via the tracheal catheter. Total and differential white cell counts in the BALF samples were measured using a Neubaur haemocytometer. Cytospin smears of the BALF samples were prepared by centrifugation at 200 rpm for 5 min at RT and stained using a DiffQuik stain system (Dade Behring). Cells were counted using oil immersion microscopy. Data for neutrophil numbers in BAL are shown as mean±S.E.M. (standard error of the mean). The percentage inhibition of neutrophil accumulation was calculated for each treatment relative to vehicle treatment.

Data on two molecules can be found in patent publication US9108950B2, “1-pyrazolyl-3-(4-((2-anilinopyrimidin-4-yl)oxy)napththalen-1-yl) ureas as p38 MAP kinase inhibitors” (Respivert Ltd., priority 2011, dated 2015).

Consider `COCC(=O)Nc1cc(Oc2ccc(NC(=O)Nc3cc(C(C)(C)C)nn3-c3ccc(C)cc3)c3ccccc23)ccn1` [Reference Compound, N-(4-(4-(3-(3-tert-butyl-1-p-tolyl-1H-pyrazol-5-yl)ureido)naphthalen-1-yloxy)pyridin-2-yl)-2-methoxyacetamide, reference compound], for which the “MTT Assay Cell viability in d-U937 Cells” value in series [1] (4 h) is “−ve (−ve and +ve indicate the value is below and above respectively, the no significant effect threshold defined as 30% inhibition at 1 μg/mL at the time point indicated.)”; in series [1] (24 h), “+ve (−ve and +ve indicate the value is below and above respectively, the no significant effect threshold defined as 30% inhibition at 1 μg/mL at the time point indicated.)”.
For `CCC(=O)O[C@]1(C(=O)SCF)[C@H](C)C[C@H]2[C@@H]3C[C@H](F)C4=CC(=O)C=C[C@]4(C)[C@@]3(F)[C@@H](O)C[C@@]21C` [Fluticasone Propionate, fluticasone propionate, reference compound], in series [2], the “macrophage accumulation into airways” value is listed as “did not inhibit” and the “neutrophil accumulation into airways” value is “did not inhibit”. In series [3], the “inhibition of LPS-induced neutrophil accumulation” value is given as greater than 80%.
